In ChEMBL document CHEMBL1201862, “PubChem BioAssay data set” (2004):
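Test compounds were applied to cells in 96-well plates for 48 hours at 5 doses. GI50 is the concentration that inhibits growth by half.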 Calls of active or inactive are those of the source. Rule as the data show it: active = GI50 up to about 1.1 µM and inactive = higher.

Key:
Assay in all cases: NCI tumour cell line growth inhibition, 48 h
A498 = system: A498
CCRF-CEM = system: CCRF-CEM
DU-145 = system: DU-145
Hs-578T = system: Hs-578T
IGROV-1 = system: IGROV-1
K562 = system: K562
M14 = system: M14
MDA-MB-231 = system: MDA-MB-231
MDA-MB-435 = system: MDA-MB-435
MOLT-4 = system: MOLT-4
NCI-H23 = system: NCI-H23
NCI-H522 = system: NCI-H522
NCI/ADR-RES = system: NCI/ADR-RES
OVCAR-5 = system: OVCAR-5
SF-268 = system: SF-268
SNB-75 = system: SNB-75
UACC-257 = system: UACC-257
UO-31 = system: UO-31
EKVX = system: EKVX
OVCAR-4 = system: OVCAR-4

Measured: GI50

O=C(O)Cn1ccc(=O)c2ccc([N+](=O)[O-])cc21
inactive: A498 > 100 µM | CCRF-CEM > 100 µM | DU-145 > 100 µM | Hs-578T > 100 µM | IGROV-1 > 100 µM | K562 > 100 µM | M14 > 100 µM | MDA-MB-231 28.8 µM | MDA-MB-435 > 100 µM | MOLT-4 > 100 µM | NCI-H23 > 100 µM | NCI-H522 > 100 µM | NCI/ADR-RES > 100 µM | OVCAR-5 > 100 µM | SF-268 > 100 µM | SNB-75 38.4 µM | UACC-257 > 100 µM | UO-31 > 100 µM

O/N=C(/C(Cl)=C(Cl)Cl)C(Cl)Cl
inactive: A498 > 100 µM | CCRF-CEM 12.4 µM | DU-145 29.6 µM | EKVX 42.5 µM | Hs-578T 19.1 µM | IGROV-1 20.4 µM | K562 13.3 µM | M14 20.2 µM | MDA-MB-231 19.2 µM | MDA-MB-435 18.2 µM | MOLT-4 15.9 µM | NCI-H23 14.9 µM | NCI/ADR-RES 32.2 µM | OVCAR-4 16.7 µM | OVCAR-5 25.9 µM | SF-268 17 µM | SNB-75 19 µM | UACC-257 19.6 µM | UO-31 20.9 µM

Oc1ccccc1/C=N/Nc1nc(N/N=C/c2ccccc2O)nc(N/N=C/c2ccccc2O)n1
inactive: A498 > 100 µM | DU-145 > 100 µM | EKVX > 100 µM | Hs-578T 46.5 µM | IGROV-1 45.4 µM | K562 > 100 µM | M14 > 100 µM | MDA-MB-231 > 100 µM | MDA-MB-435 > 100 µM | MOLT-4 10.5 µM | NCI-H23 > 100 µM | NCI-H522 31.6 µM | NCI/ADR-RES 24.5 µM | OVCAR-4 > 100 µM | OVCAR-5 > 100 µM | SF-268 > 100 µM | UACC-257 > 100 µM | UO-31 > 100 µM

Cc1ccc2c(c1)C(=C(C#N)C#N)CCCS2(=O)=O
inactive: A498 > 100 µM | CCRF-CEM > 100 µM | DU-145 > 100 µM | EKVX > 100 µM | Hs-578T > 100 µM | IGROV-1 > 100 µM | K562 > 100 µM | M14 > 100 µM | MDA-MB-231 > 100 µM | MDA-MB-435 > 100 µM | MOLT-4 > 100 µM | NCI-H23 > 100 µM | NCI/ADR-RES > 100 µM | OVCAR-4 > 100 µM | OVCAR-5 > 100 µM | SF-268 > 100 µM | SNB-75 > 100 µM | UACC-257 > 100 µM | UO-31 > 100 µM

CCCCCCc1nn2c(-c3ccncc3)nnc2s1
inactive: A498 > 10 µM | CCRF-CEM > 10 µM | DU-145 > 10 µM | EKVX > 10 µM | Hs-578T > 10 µM | IGROV-1 > 10 µM | K562 > 10 µM | M14 > 10 µM | MDA-MB-231 > 10 µM | MDA-MB-435 > 10 µM | MOLT-4 > 10 µM | NCI-H23 > 10 µM | NCI-H522 > 10 µM | NCI/ADR-RES > 10 µM | OVCAR-4 > 10 µM | OVCAR-5 > 10 µM | SF-268 > 10 µM | UACC-257 > 10 µM | UO-31 1.42 µM

OC[C@H]1N[C@H](CO)[C@@H](O)[C@H]1O
inactive: A498 > 100 µM | CCRF-CEM > 100 µM | DU-145 > 100 µM | EKVX > 100 µM | Hs-578T > 100 µM | IGROV-1 > 100 µM | K562 > 100 µM | M14 > 100 µM | MDA-MB-231 > 100 µM | MDA-MB-435 > 100 µM | MOLT-4 > 100 µM | NCI-H23 > 100 µM | NCI-H522 > 100 µM | NCI/ADR-RES > 100 µM | OVCAR-5 > 100 µM | SF-268 > 100 µM | SNB-75 > 100 µM | UACC-257 > 100 µM | UO-31 > 100 µM

N#C/C=c1/c2ccccc2n2nc3ccccc3c12
inactive: A498 13.7 µM | CCRF-CEM 81.7 µM | DU-145 > 100 µM | EKVX 24.5 µM | Hs-578T 22.1 µM | IGROV-1 7.19 µM | K562 > 100 µM | M14 51.9 µM | MDA-MB-231 3.61 µM | MDA-MB-435 > 100 µM | NCI-H23 22.3 µM | NCI-H522 12.5 µM | NCI/ADR-RES 14.9 µM | OVCAR-4 11.6 µM | OVCAR-5 67.6 µM | SF-268 10.9 µM | UACC-257 > 100 µM | UO-31 10.8 µM
